How the values were obtained:
[1] = test system: cloned mammalian (mSlo or hSlo) BK channel expressed in Xenopus oocytes; assay: Assay for BK channel openers: two-electrode voltage clamp, BK-mediated outward current in Xenopus oocytes; format: cell-based; settings: percent increase over BK current in controls, voltage step to +140 mV, IBTX-sensitive current
Protocol: The ability of the compounds of the invention to open BK channels and increase whole-cell outward (K^+) BK-mediated currents was assessed under voltage-clamp conditions by determining their ability to increase cloned mammalian (mSlo or hSlo) BK-mediated outward current heterologously expressed in Xenopus oocytes [Butler, A., et al., Science 1993, 261, 221–224; Dworetzky, S. I., et al., Mol. Brain Res. 1994, 27, 189–193; Gribkoff, V. K., et al., Mol. Pharmacol. 1996, 50, 206–217]. The two BK constructs employed represent nearly structurally identical homologous proteins, and have proven to be pharmacologically indistinguishable in our tests. To isolate BK current from native (background, non-BK) current, the specific and potent BK channel-blocking toxin iberiotoxin (IBTX) [Galvez, A., et al., J. Biol. Chem. 1990, 265, 11083–11090] was employed at a supramaximal concentration, e.g., 50–100 nanomolar (“nM”). The relative contribution of BK channel-mediated current to total outward current was determined by subtraction of the current remaining in the presence of IBTX (non-BK current) from the current profiles obtained in all other experimental conditions (control, drug, and wash) [Gribkoff, V. K. et al., Mol. Pharmacol. 1996, 50, 206–217]. […] All compounds were tested in 5–10 oocytes and are reported at the indicated concentration of 20 micromolar (“μM”) (or as otherwise indicated); the effect of the selected compounds of the invention on BK current was expressed as the percent of control IBTX-sensitive current at a single transmembrane voltage (+140 mV) and is listed in Table 1. Recordings were accomplished using standard two-electrode voltage clamp techniques [Stuhmer, W., et al., Methods in Enzymology, 1992, 207, 319–339]; voltage-clamp protocols consisted of 500–750 milliseconds (“ms”) duration step depolarizations, from a holding potential of −60 mV, to a final voltage up to +140 mV in 20 mV steps. The experimental media (modified Barth's solution) consisted of millimolar (“mM”): NaCl (88), NaHCO3 (2.4), KCl (1.0), HEPES (10), MgSO4 (0.82), Ca(NO3)2 (0.33), CaCl2 (0.41); pH 7.5.

[2] = test system: rat small intestine (ileum) segments; assay: Rat small intestine (ileum) strip relaxation; settings: integral of nifedipine-sensitive force, pre- vs 30 min post-compound
Text: The ability of the compounds of the invention to relax rat small intestine tissue as a model for the treatment of irritable bowel syndrome is described as follows. Male rats (Harlan, Sprague Dawley, 250–350 g) were sacrificed by decapitation. A portion of small intestine (ileum) was removed and the attached connective tissues and intestinal contents removed. The ileum was cut into segments of ≦1 cm in length. The segments were mounted longitudinally between fixed hooks in organ baths containing warm (37° C.) physiological salt solution (composition in mM: NaCl 118.4, KCl 4.7, KH2PO4 1.2, MgSO4 1.2, CaCl2 1.8, Glucose 10.1, NaHCO3 25; gassed with 95% O2/5% CO2, pH 7.4). A stable tension of ˜1.5 g was maintained in the tissue segments during the equilibration period of 45 minutes. Changes in muscle tension were measured with isometric force transducers (Grass, FT-03C) and recorded using AcqKnowledge data acquisition system (AcqKnowledge for MP100WS, Biopac Systems Inc., Goleta, Calif.). Compound or vehicle was added in the baths for 30 minutes. […] The effects of compounds or vehicle on force was determined by measuring the integral of nifedipine-sensitive force (including resting tone and spontaneous contractions) pre- and 30 min post-compound (or vehicle) addition. Results are expressed as the percentage inhibition of force. […]

SMILES | % MaxiK opening ([1]; at 20 μM) [%] | % Inhibition of force (RSI strips) [2] [%] | % MaxiK opening ([1]; at 1 μM)
Nc1ccc(Sc2c(-c3cc(Cl)ccc3O)c3cc(C(F)(F)F)ccc3[nH]c2=O)cc1 [Example 1, 3-[(4-Aminophenyl)thio]-4-(5-chloro-2-hydroxyphenyl)-6-(trifluoromethyl)-2(1H)-quinolinone] | 392 | 10 | –
Cn1c(=O)c(Sc2ccc(N)cc2)c(-c2cc(Cl)ccc2O)c2cc(C(F)(F)F)ccc21 [Example 2, 3-[(4-Aminophenyl)thio]-4-(5-chloro-2-hydroxyphenyl)-1-methyl-6-(trifluoromethyl)-2(1H)-quinolinone] | 144 | – | –
CCS(=O)(=O)Nc1ccc(Sc2c(-c3cc(Cl)ccc3O)c3cc(C(F)(F)F)ccc3[nH]c2=O)cc1 [Example 3, N-[4-[[4-(5-Chloro-2-hydroxyphenyl)-1,2-dihydro-2-oxo-6-(trifluoromethyl)-3-quinolinyl]thio]phenyl]ethanesulfonamide] | 296 | – | –
COc1ccc(Cl)cc1-c1c(Sc2ccc(NS(=O)(=O)C(F)(F)F)cc2)c(=O)[nH]c2ccc(C(F)(F)F)cc12 [Example 4, N-[4-[[4-(5-chloro-2-methoxyphenyl)-1,2-dihydro-2-oxo-6-(trifluoromethyl)-3-quinolinyl]thio]phenyl]-1,1,1-trifluoromethanesulfonamide] | 235 | – | –
CCCS(=O)(=O)Nc1ccc(Sc2c(-c3cc(Cl)ccc3O)c3cc(C(F)(F)F)ccc3[nH]c2=O)cc1 [Example 5, N-[4-[[4-(5-chloro-2-hydroxyphenyl)-1,2-dihydro-2-oxo-6-(trifluoromethyl)-3-quinolinyl]thio]phenyl]-1-propanesulfonamide] | 255 | – | –
CN(C)S(=O)(=O)Nc1ccc(Sc2c(-c3cc(Cl)ccc3O)c3cc(C(F)(F)F)ccc3[nH]c2=O)cc1 [Example 6, N′-[4-[[4-(5-chloro-2-hydroxyphenyl)-1,2-dihydro-2-oxo-6-(trifluoromethyl)-3-quinolinyl]thio]phenyl]-N,N-dimethylsulfamide] | – | – | 222^⋄ %
O=c1[nH]c2ccc(C(F)(F)F)cc2c(-c2cc(Cl)ccc2O)c1Sc1ccc(NS(=O)(=O)C(F)(F)F)cc1 [Example 7, N-[4-[[4-(5-chloro-2-hydroxyphenyl)-1,2-dihydro-2-oxo-6-(trifluoromethyl)-3-quinolinyl]thio]phenyl]-1,1,1-trifluoromethanesulfonamide] | 277 | 51 | –
O=c1[nH]c2ccc(C(F)(F)F)cc2c(-c2cc(Cl)ccc2O)c1Sc1ccc(NS(=O)(=O)CC(F)(F)F)cc1 [Example 8, N-[4-[[4-(5-chloro-2-hydroxyphenyl)-1,2-dihydro-2-oxo-6-(trifluoromethyl)-3-quinolinyl]thio]phenyl]-2,2,2-trifluoroethanesulfonamide] | 170 | – | –
CN(C)S(=O)(=O)Nc1ccc(Sc2c(-c3cc(Cl)ccc3O)c3cc(C(F)(F)F)ccc3n(C)c2=O)cc1 [Example 9, N′-[4-[[4-(5-chloro-2-hydroxyphenyl)-1,2-dihydro-1-methyl-2-oxo-6-(trifluoromethyl)-3-quinolinyl]thio]phenyl]-N,N-dimethylsulfamide] | – | – | 114^⋄ %

Source: US7145013B2, “3-thia-4-arylquinolin-2-one derivatives” (Bristol-Myers Squibb Company, priority 2003, dated 2006)
